Data: patent US20260366053A1, “SYNTHESIS OF COTYLENIN AND ANALOGS THEREOF FOR THE DEVELOPMENT OF SELECTIVE MODULATORS OF 14-3-3 PROTEIN-PROTEIN INTERACTION” (priority 2022, published 2026)
Entries after “also recorded” stand apart in the source; their conditions may differ.

What was measured:
[1] = system: 14-3-3 proteins and their clients; details: cited from earlier work
14-3-3 PPI = details: cited from earlier work
[2] = system: human myeloid leukemia cells; details: listed as cotylenol; cited from earlier work
[3] = system: 14-3-3sigma and the C-terminal of TASK-3; details: structural; listed as cotylenol; cited from earlier work
[4] = target: P450BM3 variant MERO1 L75A (Priestia megaterium, UniProt P14779, A185V/A291V/A83G/E253G/F206C/F88V/H237Q/L354V/L76A/P143S/R256S/S227R/T176I/V79A); details: role: substrate; cofactor Na2NADP 0.2 eq.; lysate, 22 °C, 16 h, pH 8.0
Sequence of P450BM3 variant MERO1 L75A (P14779 whole entry L76A/V79A/A83G/F88V/P143S/T176I/A185V/F206C/S227R/H237Q/E253G/R256S/A291V/L354V): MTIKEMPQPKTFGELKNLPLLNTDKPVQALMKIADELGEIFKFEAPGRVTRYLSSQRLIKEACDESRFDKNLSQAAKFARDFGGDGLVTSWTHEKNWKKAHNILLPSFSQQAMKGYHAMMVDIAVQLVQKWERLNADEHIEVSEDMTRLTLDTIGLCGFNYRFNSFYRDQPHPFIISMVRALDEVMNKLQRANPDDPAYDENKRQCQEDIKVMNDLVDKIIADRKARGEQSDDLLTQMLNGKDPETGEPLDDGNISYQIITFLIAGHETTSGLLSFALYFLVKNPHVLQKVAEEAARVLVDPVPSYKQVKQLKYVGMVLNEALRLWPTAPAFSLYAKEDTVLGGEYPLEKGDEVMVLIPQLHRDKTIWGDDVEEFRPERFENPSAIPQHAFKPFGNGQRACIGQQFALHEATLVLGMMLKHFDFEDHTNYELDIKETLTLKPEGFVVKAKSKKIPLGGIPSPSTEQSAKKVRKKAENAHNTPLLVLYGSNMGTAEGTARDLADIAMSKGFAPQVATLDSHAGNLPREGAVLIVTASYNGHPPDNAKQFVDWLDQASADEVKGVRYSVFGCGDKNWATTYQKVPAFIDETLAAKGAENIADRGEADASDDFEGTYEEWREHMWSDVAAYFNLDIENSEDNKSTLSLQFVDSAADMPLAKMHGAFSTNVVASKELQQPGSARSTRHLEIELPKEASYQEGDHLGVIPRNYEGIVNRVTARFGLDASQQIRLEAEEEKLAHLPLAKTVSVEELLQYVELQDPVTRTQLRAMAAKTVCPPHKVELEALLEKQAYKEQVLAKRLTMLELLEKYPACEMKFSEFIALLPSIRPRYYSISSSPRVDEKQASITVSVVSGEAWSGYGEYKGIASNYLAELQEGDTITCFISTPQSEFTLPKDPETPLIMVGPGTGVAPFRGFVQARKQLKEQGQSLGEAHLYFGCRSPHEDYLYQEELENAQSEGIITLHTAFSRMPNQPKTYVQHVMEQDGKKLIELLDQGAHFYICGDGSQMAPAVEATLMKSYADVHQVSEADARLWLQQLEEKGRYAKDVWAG

[5] = target: P450BM3 variant MERO1 FT (MERO1 L181F V184T) (Priestia megaterium, UniProt P14779, A185T/A291V/A83G/E253G/F206C/F88V/H237Q/L182F/L354V/P143S/R256S/S227R/T176I/V79A); details: role: substrate; cofactor Na2NADP 0.2 eq.; lysate, 22 °C, 16 h, pH 8.0
Sequence of P450BM3 variant MERO1 FT (MERO1 L181F V184T) (P14779 whole entry V79A/A83G/F88V/P143S/T176I/L182F/A185T/F206C/S227R/H237Q/E253G/R256S/A291V/L354V): as the sequence (P14779 whole entry L76A/V79A/A83G/F88V/P143S/T176I/A185V/F206C/S227R/H237Q/E253G/R256S/A291V/L354V) above, with A76L, L182F, V185T counted along it

MoBsc9 = format: biochemical, Magnaporthe oryzae; details: for conversion: role: substrate, cosubstrate α-ketoglutarate, 1 mg scale, clarified lysate, 15 °C, 10 h, pH 8.5
Bsc9 “VR” = Bsc9 “VR” (Alternaria brassicicola, UniProt D7UTD1, DEL103-114/G116R/H115V); details: role: substrate
BscD = BscD (Pseudocercospora fijiensis, UniProt M2ZB93); details: role: substrate; E. coli lysates
From the text: The biocatalytic use of BscD and Bsc9 was investigated for the oxidation of 20.

Wild-type Bsc9 = Wild-type Bsc9 (Alternaria brassicicola, UniProt D7UTD1); format: biochemical; details: for conversion: pH 8.5

**Q.** For `C=CC(C)(C)OC[C@H]1O[C@H](O[C@@H]2C3=C([C@H](C)COC(C)=O)C[C@H](O)[C@]3(C)/C=C3/[C@@H](COC)CC[C@H]3[C@@H](C)[C@H]2O)[C@H](O)[C@@H](OC(C)=O)[C@@H]1O` [Compound 2], which molecular glue activity [1] is on record?
**A.** capable of acting as molecular glues

**Q.** And the phytotoxicity (14-3-3 PPI)?
**A.** phytotoxins that target the 14-3-3 PPI

**Q.** Which cytotoxicity [2] does the source give for `COC[C@@]1(O)CC[C@@H]2/C1=C\[C@@]1(C)CCC(C(C)C)=C1[C@@H](O)[C@H](O)[C@@H]2C` [Compound 3] here?
**A.** cytotoxic toward human myeloid leukemia cells; also recorded: moderate cytotoxicity on human myeloid leukemia cells

**Q.** And the ternary complex formation [3]?
**A.** form a ternary complex with 14-3-3sigma and the C-terminal of TASK-3; also recorded: a crystal structure of cotylenol in complex with 14-3-3s and a synthetic C-terminal hexapeptide of TASK-3 has also been solved

**Q.** With `COC[C@@]1(O)CC[C@@H]2/C1=C\[C@@]1(C)CCC(C(C)C)=C1C[C@H](O)[C@@H]2C` [Compound 4] as the compound, how does the “regioselectivity of hydroxylation at C13” value [4] read?
**A.** without any observable regioisomers

**Q.** For `COCC1=C2C[C@@]3(C)CCC(C(C)C)=C3CC(=O)[C@H](C)[C@@H]2CC1` [Compound 8], which regioselectivity of oxidation [5] is on record?
**A.** primarily at C4

**Q.** Which conversion (MoBsc9) does the source give for `COCC1=C2C[C@@]3(C)CCC(C(C)C)=C3[C@@H](O)C(=O)[C@H](C)[C@@H]2CC1` [Compound 20] here?
**A.** 100%

**Q.** And the “reaction (in words)” value (Bsc9 “VR”)?
**A.** no reaction

**Q.** And the “reaction (in words)” value (BscD)?
**A.** no reaction

**Q.** And the “conversion (in words)” value (Wild-type Bsc9)?
**A.** moderate conversion

**Q.** And the conversion (Wild-type Bsc9)?
**A.** 43%

**Q.** For `COC[C@@]1(O)CC[C@@H]2/C1=C\[C@@]1(C)CCC(C(C)C)=C1[C@@H](O)C(=O)[C@@H]2C` [Compound 21], which “improvement in assay yield of 21” value (MoBsc9; role: product, relative to Bsc9) is on record?
**A.** ca. two-fold

**Q.** With `CC(C)C1=C2[C@@H](O)C(=O)[C@H](C)[C@@H]3CCC(=O)/C3=C/[C@@]2(C)CC1` [Compound 22] as the compound, how does the “conversion (in words)” value (Wild-type Bsc9) read?
**A.** no further conversion

**Q.** For `COCC1=C2C[C@@]3(C)CCC(C(C)C)=C3C[C@H](O)[C@H](C)[C@@H]2CC1` [Compound 23], which conversion (MoBsc9) is on record?
**A.** 30%

**Q.** What about the “selectivity (percent ratio of the desired product:total products)” value (Wild-type Bsc9) of the same compound?
**A.** 43%

**Q.** What about the conversion (Wild-type Bsc9) of the same compound?
**A.** 37%
